Like-named read-outs stand apart in the source and are kept apart here.
Legend:
CD23 proteinase = target: T1, CD23 proteinase (Homo sapiens, UniProt O14672); test: RPMI 8866 cell membrane CD23 cleavage activity assay (CD23 proteinase inhibition); type: biochemical; settings: RPMI 8866 cell membranes
T1 construct: Plasma membranes from RPMI 8866 cells, a human Epstein-Barr virus transformed B-cell line; endogenous in cells; host or cells: RPMI 8866 (human EBV-transformed B-cell line), enriched plasma membranes
T1 sequence (O14672 214-748): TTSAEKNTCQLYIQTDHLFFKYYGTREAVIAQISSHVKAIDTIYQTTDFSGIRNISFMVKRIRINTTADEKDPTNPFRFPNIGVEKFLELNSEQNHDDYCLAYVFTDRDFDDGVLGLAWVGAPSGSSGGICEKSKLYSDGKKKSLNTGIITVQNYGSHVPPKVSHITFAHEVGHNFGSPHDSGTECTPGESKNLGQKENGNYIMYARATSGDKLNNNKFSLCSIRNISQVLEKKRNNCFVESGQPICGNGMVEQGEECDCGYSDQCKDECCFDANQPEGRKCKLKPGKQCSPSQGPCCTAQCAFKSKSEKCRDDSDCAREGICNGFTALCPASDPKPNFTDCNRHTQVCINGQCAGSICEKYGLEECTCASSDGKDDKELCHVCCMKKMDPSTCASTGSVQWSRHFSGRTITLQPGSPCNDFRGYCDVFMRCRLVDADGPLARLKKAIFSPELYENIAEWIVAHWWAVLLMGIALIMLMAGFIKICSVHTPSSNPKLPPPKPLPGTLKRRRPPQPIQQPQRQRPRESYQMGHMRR
Experimental: Procedure 1: The ability of test compounds to inhibit the release of soluble CD23 was investigated by use of the following procedure.
Cells resuspended in homogenization buffer (20 mM HEPES pH 7.4, 150 mM NaCl, 1.5 mM MgCl2, 1 mM DTI) are broken by N2 cavitation in a Parr bomb and the plasma membrane fraction mixed with other membranes is recovered by centrifugation at 10,000×g. The light pellet is resuspended in 0.2 M potassium phosphate, pH 7.2 using 2 ml per 1-3 g wet cells and the nuclear pellet is discarded. […] The phases are separated by brief centrifugation at 1000×g and the PEG (upper) phase is collected, diluted 3-5 fold with 20 mM potassium phosphate buffer pH 7.4, and centrifuged at 100,000×g to recover membranes in that phase. The pellet is resuspended in phosphate-buffered saline and consists of 3-4 fold enriched plasma membranes as well as some other cell membranes (e.g. lysosomes, Golgi). The membranes are aliquoted and stored at -80° C.
The amount of soluble CD23 made by 0.5 ug membrane protein in a total volume of 50 ul phosphate-buffered saline is measured by EIA and compared to the amount made in the presence of various concentrations of inhibitors. Inhibitors are prepared in solutions of water or dimethylsulfoxide (DMSO) and the final DMSO concentration is not more than 2%.

[1] = target: T2, human recombinant collagenase (Homo sapiens, UniProt P03956); test: Collagenase Inhibition Assay; type: biochemical
T2 construct: made in house; host or cells: E. coli
T2 sequence (P03956 100-469): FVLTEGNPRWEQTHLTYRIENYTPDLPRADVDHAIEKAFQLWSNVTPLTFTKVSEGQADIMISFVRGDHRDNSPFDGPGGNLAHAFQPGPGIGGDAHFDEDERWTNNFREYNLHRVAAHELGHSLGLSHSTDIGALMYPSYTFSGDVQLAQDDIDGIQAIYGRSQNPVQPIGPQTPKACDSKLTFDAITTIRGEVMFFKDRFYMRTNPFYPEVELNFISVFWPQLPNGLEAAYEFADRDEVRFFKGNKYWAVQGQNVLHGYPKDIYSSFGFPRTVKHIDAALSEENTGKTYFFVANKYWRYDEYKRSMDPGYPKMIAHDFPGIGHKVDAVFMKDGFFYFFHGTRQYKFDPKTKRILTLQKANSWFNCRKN
Text: Collagenase Inhibition Assay:
The collagen was acetylated ^3 H type 1 bovine collagen prepared by the method of Cawston and Murphy (methods in Enzymology 80, 711,1981) The samples were centrifuged to sediment undigested collagen and an aliquot of the radioactive supernatant removed for assay on a scintillation counter as a measure of hydrolysis.

TNFα = test: Inhibition of release of TNFα from human monocytes stimulated by LPS (TNF processing inhibition); type: cell-based; settings: Monocyte, read-out: TNF processing inhibition
Experimental: Procedure 3: The ability of test compounds to inhibit TNF release was investigated using the following procedure. Assay for inhibition of release of TNFα from human monocytes stimulated by lipopolysaccharide (LPS) endotoxin. […] The cell suspension is aliquoted in 24 well plates, 1 ml per well. Compounds to be tested are dissolved in neat dimethyl sulfoxide (DMSO) and added to culture with the final DMSO concentration at 0.1%. Compounds are added to cells in triplicate wells. TNFα release is stimulated by addition of LPS to the cells at a final concentration of 200 ng/ml. Appropriate control cultures are set up in triplicates also. The plates are incubated for 18-20 hrs at 37° C., 5% CO2, then centrifuged at 1000×g for 5 min. A specific ELISA for human TNFα (SmithKline Beecham) is used to measure TNF levels in the cell-free culture supernatants.

`CNC(=O)[C@@H](NC(=O)[C@H](Cc1ccc2ccccc2c1)[C@H](O)C(=O)NO)C(C)(C)C` [Example 1, N'-[3S-Hydroxy-4-(N-hydroxyamino)-2R-(2-naphthylmethyl)succinyl]-S-tert-leucine-N-methylamide] was tested, and the inhibition at 1 µM (CD23 proteinase; at 1 uM) was 88% and the IC50 [1] was over 10 µM.

`CNC(=O)[C@H](Cc1ccccc1)NC(=O)[C@H](CC(C)C)[C@H](CSc1cccs1)C(=O)NO` [Comparative Example, reference compound] showed an inhibition at 1 µM (TNFα; Homo sapiens) of 76.4 ± 0.9%.

`CNC(=O)[C@H](Cc1ccccc1)NC(=O)[C@H](Cc1ccc2ccccc2c1)[C@H](O)C(=O)NO` [Example 2, N'-[3S-Hydroxy-4-(N-hydroxyamino)-2R-(2-naphthylmethyl)succinyl]-S-phenylalanine-N-methylamide] was tested, and the inhibition at 2 µM (CD23 proteinase; at 2 uM) was 90%, the IC50 ([1]; 37° C., 18 h, acetylated 3H type 1 bovine collagen, read-out: Collagenase inhibition IC50) was 8.6 µM and the inhibition at 1 µM (TNFα; at 1 uM, human monocytes, LPS 200 ng/ml, 18-20 hrs) was 45%.
